Tests used:
Assay in all cases: Protein kinase selectivity panel
Type in all cases: biochemical
Settings in all cases: 1.0 μM compound, 10 μM ATP
[1] = biological target: T1, Aurora-A(h) (Homo sapiens, UniProt O14965)
T1 sequence (O14965 1-403): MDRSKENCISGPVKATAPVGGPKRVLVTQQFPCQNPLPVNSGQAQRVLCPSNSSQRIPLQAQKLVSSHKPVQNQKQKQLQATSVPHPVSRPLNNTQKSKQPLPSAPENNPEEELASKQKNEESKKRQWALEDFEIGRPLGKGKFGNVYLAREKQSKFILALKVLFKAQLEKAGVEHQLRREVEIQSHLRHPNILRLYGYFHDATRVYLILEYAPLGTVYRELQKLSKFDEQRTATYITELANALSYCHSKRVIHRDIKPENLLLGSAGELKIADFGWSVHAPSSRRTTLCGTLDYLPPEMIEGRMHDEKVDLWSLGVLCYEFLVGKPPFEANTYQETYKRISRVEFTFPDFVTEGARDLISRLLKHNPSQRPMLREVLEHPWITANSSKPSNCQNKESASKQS
Method in brief: (§1)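 At a fixed 1.0 μM compound, activity toward peptide or protein substrates was determined with ATP at 10 μM.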

[2] = biological target: PKCβII(h) (Homo sapiens, UniProt P05771)
Chain of PKCβII(h) (P05771 1-673 isoform P05771-2): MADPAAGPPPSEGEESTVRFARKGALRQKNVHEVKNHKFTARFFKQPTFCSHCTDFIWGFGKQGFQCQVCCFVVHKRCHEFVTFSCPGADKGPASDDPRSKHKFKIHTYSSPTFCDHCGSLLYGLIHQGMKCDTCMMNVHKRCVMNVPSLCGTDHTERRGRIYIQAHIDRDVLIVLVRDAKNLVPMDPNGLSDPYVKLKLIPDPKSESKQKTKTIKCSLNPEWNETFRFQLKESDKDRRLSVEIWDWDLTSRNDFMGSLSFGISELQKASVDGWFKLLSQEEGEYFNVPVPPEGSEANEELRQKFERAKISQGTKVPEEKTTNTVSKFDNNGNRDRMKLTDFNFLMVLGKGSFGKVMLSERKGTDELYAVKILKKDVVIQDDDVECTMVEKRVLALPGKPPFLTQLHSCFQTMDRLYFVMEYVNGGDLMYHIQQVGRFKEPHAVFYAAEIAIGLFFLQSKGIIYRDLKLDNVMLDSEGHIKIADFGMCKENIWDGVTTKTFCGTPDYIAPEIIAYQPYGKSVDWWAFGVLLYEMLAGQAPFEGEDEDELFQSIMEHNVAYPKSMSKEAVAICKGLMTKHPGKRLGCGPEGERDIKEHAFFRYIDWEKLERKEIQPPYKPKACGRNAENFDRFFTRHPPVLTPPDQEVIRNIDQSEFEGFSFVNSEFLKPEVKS
Method in brief: as §1

[3] = biological target: T2, Bmx(h) (Homo sapiens, UniProt P51813)
T2 sequence (P51813 1-675): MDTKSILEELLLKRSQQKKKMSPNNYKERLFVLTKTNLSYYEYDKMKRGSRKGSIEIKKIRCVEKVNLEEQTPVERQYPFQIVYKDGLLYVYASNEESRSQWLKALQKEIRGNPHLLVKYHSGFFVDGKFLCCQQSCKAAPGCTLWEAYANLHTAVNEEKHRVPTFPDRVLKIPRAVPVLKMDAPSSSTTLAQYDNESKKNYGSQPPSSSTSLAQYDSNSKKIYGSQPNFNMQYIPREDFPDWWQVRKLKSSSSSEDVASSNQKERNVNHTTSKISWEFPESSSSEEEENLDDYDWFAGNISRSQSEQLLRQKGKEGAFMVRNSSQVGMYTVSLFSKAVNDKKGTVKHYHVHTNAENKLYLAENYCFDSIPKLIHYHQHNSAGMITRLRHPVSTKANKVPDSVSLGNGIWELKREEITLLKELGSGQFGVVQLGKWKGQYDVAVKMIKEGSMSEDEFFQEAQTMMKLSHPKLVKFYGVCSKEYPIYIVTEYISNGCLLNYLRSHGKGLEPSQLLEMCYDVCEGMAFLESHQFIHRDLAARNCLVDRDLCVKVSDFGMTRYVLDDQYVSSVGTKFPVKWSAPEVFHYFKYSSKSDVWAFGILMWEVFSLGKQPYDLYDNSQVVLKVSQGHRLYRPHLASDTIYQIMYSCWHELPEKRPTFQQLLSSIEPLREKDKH
Method in brief: as §1

[4] = biological target: EGFR(h) (Homo sapiens, UniProt P00533)
Chain of EGFR(h) (P00533 25-1210): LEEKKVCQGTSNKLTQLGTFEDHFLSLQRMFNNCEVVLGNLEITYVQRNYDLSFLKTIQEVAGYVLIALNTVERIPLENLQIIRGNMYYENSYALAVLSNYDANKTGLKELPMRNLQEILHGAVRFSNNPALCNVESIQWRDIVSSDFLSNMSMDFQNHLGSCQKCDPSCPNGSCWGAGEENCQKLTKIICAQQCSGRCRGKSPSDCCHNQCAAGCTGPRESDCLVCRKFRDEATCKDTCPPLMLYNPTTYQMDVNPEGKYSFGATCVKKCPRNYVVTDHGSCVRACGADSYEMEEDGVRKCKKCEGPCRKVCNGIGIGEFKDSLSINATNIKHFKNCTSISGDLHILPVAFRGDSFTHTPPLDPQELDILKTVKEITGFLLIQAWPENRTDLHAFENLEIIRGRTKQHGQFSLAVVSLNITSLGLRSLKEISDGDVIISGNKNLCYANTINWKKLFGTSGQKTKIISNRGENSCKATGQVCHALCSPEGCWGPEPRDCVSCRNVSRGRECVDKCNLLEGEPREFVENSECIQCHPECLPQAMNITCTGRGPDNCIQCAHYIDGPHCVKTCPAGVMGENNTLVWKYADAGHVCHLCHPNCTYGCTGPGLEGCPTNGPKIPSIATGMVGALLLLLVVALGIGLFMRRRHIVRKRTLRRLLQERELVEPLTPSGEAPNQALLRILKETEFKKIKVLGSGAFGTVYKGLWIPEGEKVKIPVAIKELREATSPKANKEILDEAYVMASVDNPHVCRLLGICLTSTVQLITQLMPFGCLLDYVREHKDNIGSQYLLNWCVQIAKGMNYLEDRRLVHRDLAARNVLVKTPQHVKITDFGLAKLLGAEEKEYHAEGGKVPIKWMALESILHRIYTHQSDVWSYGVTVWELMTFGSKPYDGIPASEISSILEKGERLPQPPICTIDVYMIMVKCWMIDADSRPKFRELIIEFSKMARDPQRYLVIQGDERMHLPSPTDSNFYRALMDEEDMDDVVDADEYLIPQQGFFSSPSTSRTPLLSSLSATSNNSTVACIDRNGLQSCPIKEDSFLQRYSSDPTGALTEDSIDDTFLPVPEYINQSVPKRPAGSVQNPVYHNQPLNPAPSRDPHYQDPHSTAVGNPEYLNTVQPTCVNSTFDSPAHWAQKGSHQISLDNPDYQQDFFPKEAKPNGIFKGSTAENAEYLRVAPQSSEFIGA
Method in brief: as §1

[5] = biological target: T3, PKCι(h) (Homo sapiens, UniProt P41743)
T3 sequence (P41743 1-596): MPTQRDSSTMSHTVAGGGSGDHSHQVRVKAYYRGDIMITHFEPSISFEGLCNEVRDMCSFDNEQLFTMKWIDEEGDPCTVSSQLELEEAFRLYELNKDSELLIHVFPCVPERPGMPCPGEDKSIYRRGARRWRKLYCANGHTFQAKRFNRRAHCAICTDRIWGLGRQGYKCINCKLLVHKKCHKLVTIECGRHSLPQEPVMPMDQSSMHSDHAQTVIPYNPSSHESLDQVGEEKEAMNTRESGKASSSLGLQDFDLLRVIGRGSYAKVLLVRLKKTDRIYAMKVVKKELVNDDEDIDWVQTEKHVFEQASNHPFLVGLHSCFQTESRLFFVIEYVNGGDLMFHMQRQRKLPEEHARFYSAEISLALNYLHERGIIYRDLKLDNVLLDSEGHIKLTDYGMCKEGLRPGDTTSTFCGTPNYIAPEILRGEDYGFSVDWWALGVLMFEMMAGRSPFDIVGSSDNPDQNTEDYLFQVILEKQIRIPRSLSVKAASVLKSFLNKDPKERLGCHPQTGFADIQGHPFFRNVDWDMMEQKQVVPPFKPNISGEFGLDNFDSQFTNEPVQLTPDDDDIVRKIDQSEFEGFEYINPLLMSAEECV
Method in brief: as §1

[6] = biological target: CDK6/cyclinD3(h) (Homo sapiens, UniProt Q00534)
Chain of CDK6/cyclinD3(h) (Q00534 whole entry): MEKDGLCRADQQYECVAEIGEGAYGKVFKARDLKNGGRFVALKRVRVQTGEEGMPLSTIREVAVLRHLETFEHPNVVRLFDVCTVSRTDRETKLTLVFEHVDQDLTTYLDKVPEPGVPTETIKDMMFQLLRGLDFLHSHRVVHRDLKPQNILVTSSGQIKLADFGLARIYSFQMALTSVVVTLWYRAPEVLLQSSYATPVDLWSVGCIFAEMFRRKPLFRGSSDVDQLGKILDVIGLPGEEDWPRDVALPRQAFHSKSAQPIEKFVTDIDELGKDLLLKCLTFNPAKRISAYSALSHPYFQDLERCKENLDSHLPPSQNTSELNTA
Chain of CDK6/cyclinD3(h) (P30281 whole entry partner): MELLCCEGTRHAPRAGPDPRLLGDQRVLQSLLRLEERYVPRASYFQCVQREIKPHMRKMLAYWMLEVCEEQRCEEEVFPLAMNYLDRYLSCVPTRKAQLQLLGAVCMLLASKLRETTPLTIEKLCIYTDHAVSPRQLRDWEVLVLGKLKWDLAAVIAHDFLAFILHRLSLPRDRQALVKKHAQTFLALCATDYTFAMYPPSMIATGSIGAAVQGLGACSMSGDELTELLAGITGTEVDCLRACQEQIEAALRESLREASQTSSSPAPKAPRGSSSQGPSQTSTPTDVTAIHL
Method in brief: as §1

[7] = biological target: CDK2/cyclinE(h) (Homo sapiens, UniProt P24941)
Method in brief: as §1

[8] = biological target: SAPK2a(h) (Homo sapiens, UniProt Q16539)
Chain of SAPK2a(h) (Q16539 whole entry): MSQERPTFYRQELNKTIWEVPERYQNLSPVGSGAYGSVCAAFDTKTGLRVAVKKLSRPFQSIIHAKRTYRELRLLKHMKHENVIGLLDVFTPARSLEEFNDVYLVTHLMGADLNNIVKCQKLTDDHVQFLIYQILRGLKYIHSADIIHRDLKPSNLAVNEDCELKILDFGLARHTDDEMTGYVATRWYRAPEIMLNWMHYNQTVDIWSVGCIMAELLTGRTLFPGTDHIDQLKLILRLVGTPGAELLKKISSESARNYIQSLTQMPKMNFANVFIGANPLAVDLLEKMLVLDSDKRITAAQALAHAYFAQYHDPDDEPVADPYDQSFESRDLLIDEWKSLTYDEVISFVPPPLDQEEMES
Method in brief: as §1

[9] = biological target: MSK1(h) (Homo sapiens, UniProt O75582)
Chain of MSK1(h) (O75582 whole entry): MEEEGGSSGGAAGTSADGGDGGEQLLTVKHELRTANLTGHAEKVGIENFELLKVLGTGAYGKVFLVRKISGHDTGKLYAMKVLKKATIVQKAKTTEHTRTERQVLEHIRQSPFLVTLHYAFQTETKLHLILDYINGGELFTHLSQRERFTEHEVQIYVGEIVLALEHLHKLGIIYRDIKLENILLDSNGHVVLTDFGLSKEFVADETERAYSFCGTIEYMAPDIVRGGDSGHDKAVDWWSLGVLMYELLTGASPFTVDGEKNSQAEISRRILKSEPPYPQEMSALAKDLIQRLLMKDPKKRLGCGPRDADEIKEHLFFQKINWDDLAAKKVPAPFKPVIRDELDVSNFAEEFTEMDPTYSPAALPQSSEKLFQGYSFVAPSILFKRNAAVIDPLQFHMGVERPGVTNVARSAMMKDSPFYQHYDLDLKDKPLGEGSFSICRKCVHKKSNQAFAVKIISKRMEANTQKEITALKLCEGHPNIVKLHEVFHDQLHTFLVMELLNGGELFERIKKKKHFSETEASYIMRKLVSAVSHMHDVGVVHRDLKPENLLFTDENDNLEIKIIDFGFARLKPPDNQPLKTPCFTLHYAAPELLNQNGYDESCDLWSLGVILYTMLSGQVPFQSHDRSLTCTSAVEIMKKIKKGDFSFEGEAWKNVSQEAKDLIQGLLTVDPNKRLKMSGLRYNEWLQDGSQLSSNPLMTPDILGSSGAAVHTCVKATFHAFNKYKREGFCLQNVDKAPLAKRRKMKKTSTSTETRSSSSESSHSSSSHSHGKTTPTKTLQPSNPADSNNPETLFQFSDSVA
Method in brief: as §1

[10] = biological target: PKBβ(h) (Homo sapiens, UniProt P31751)
Chain of PKBβ(h) (P31751 whole entry): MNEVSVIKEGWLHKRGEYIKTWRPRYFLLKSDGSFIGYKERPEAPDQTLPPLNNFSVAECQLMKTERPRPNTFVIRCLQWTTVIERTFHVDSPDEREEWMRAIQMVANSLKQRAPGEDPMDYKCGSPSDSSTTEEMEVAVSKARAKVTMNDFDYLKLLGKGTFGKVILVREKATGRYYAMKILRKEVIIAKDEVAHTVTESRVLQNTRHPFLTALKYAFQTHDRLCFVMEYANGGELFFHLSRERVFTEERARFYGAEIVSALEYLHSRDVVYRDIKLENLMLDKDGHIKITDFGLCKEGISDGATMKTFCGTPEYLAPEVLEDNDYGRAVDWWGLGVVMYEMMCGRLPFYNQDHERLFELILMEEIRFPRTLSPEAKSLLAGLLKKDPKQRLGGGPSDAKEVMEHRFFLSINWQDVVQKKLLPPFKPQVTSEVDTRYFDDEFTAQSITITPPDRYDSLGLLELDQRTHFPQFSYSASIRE
Method in brief: as §1

Row | SMILES | Activity at Protein Kinase Assays (% of control), Aurora-A(h) [1] | Activity at Protein Kinase Assays (% of control), PKCβII(h) [2] | Activity at Protein Kinase Assays (% of control), Bmx(h) [3] | Activity at Protein Kinase Assays (% of control), EGFR(h) [4] | Activity at Protein Kinase Assays (% of control), PKCι(h) [5] | Activity at Protein Kinase Assays (% of control), CDK6/cyclinD3(h) [6] | Activity at Protein Kinase Assays (% of control), CDK2/cyclinE(h) [7] | Activity at Protein Kinase Assays (% of control), SAPK2a(h) [8] | Activity at Protein Kinase Assays (% of control), MSK1(h) [9] | Activity at Protein Kinase Assays (% of control), PKBβ(h) [10]
1 | CN(C)c1cc2cc(n1)CCCn1cc(c3ccccc31)C1=C(C(=O)NC1=O)c1cn(c3ccccc13)CCC2 [Cpd 2, 20-(dimethylamino)-4,14,19,26-tetraazaheptacyclo[24.6.1.1^7,14.1^18,22.0^2,6.0^8,13.0^27,32]pentatriaconta-1(33),2(6),7(35),8,10,12,18(34),19,21,27,29,31-dodecaene-3,5-dione] | 111 % of control | 68 % of control | 159 % of control | 96 % of control | 117 % of control | 74 % of control | 84 % of control | 92 % of control | 58 % of control | 118 % of control
2 | CN(C)c1nc2ccc1CCCCn1cc(c3ccccc31)C1=C(C(=O)NC1=O)c1cn(c3ccccc13)CCC2 [Cpd 1, 31-(dimethylamino)-5,15,25,32-tetraazaheptacyclo[28.2.2.1^5,12.1^18,25.0^6,11.0^13,17.0^19,24]hexatriaconta-1(32),6,8,10,12(36),13(17),18(35),19,21,23,30,33-dodecaene-14,16-dione] | 109 % of control | 64 % of control | 101 % of control | 94 % of control | 104 % of control | 86 % of control | 54 % of control | 108 % of control | 36 % of control | 86 % of control
3 | O=C1NC(=O)C2=C1c1cn(c3ccccc13)CCCc1ccc(c(N3CCCC3)n1)CCCn1cc2c2ccccc21 [Cpd 7, 31-pyrrolidin-1-yl-5,15,25,30-tetraazaheptacyclo[27.2.2.1^5,12.1^18,25.0^6,11.0^13,17.0^19,24]pentatriaconta-1(31),6,8,10,12(35),13(17),18(34),19,21,23,29,32-dodecaene-14,16-dione] | 106 % of control | 77 % of control | 176 % of control | 104 % of control | 90 % of control | 92 % of control | 88 % of control | 93 % of control | 104 % of control | 102 % of control
4 | O=C1NC(=O)C2=C1c1cn(c3ccccc13)CCCc1cc(nc(N3CCCC3)c1)CCCn1cc2c2ccccc21 [Cpd 6, 20-pyrrolidin-1-yl-4,14,19,26-tetraazaheptacyclo[24.6.1.1^7,14.1^18,22.0^2,6.0^8,13.0^27,32]pentatriaconta-1(33),2(6),7(35),8,10,12,18(34),19,21,27,29,31-dodecaene-3,5-dione] | 111 % of control | 74 % of control | 173 % of control | 108 % of control | 121 % of control | 82 % of control | 88 % of control | 92 % of control | 38 % of control | 104 % of control

Reference: patent US7759331B2, “Pyridine-containing macroheterococylic compounds as kinase inhibitors” (Janssen Pharmaceutica NV, priority 2006, dated 2010)
